Results taken from patent US12389910B2, “Beta-lactams and their use as herbicides” (BASF SE, priority 2020, dated 2025).

What was measured:
[1] = tested on: AMARE; experiment: greenhouse herbicidal activity, post-emergence treatment; assay type: in vivo, Amaranthus retroflexus; settings: post-emergence method, application rate 0,250 kg/ha; scale 0 to 100
Description: (§1) The culture containers used were plastic flowerpots containing loamy sand with approximately 3.0% of humus as the substrate. The seeds of the test plants were sown separately for each species.
(§2) For the pre-emergence treatment, the active ingredients, which had been suspended or emulsified in water, were applied directly after sowing by means of finely distributing nozzles. The containers were irrigated gently to promote germination and growth and subsequently covered with transparent plastic hoods until the test plants had rooted. This cover caused uniform germination of the test plants, unless this had been impaired by the active ingredients. For the post-emergence treatment, the test plants were first grown to a height of 3 to 15 cm, depending on the plant habit, and only then treated with the active ingredients which had been suspended or emulsified in water. For this purpose, the test plants were either sown directly and grown in the same containers, or they were first grown separately as seedlings and transplanted into the test containers a few days prior to treatment.
(§3) Depending on the species, the test plants were kept at 10-25° C. or 20-35° C., respectively. The test period extended over 2 to 4 weeks. During this time, the test plants were tended, and their response to the individual treatments was evaluated.
(§4) Evaluation was carried out using a scale from 0 to 100. […]

[2] = tested on: ALOMY; experiment: as above; assay type: in vivo, Alopercurus myosuroides; settings: post-emergence method, scale 0 to 100
Description: as §1, §2, §3, §4

[3] = tested on: AVEFA; experiment: as above; assay type: in vivo, Avena fatua; settings: post-emergence method, scale 0 to 100
Description: as §1, §2, §3
Evaluation was carried out using a scale from 0 to 100. 100 means no emergence of the test plants, or complete destruction of at least the aerial moieties, and 0 means no damage, or normal course of growth. A good herbicidal activity is given at values of 80 to 90 and a very good herbicidal activity is given at values of 90 to 100.
The test plants used in the greenhouse experiments were of the following species: Bayer code Scientific name

[4] = tested on: SETFA; experiment: as above; assay type: in vivo, Setaria faberi; settings: post-emergence method, application rate 62.5 g/ha; scale 0 to 100
Description: as §1, §2, §3, §4

[5] = tested on: SETVI; experiment: as above; assay type: in vivo, Setaria viridis; settings: post-emergence method, application rate 16.0 g/ha; scale 0 to 100
Description: as §1, §2, §3, §4

[6] = tested on: LOLMU; experiment: as above; assay type: in vivo; settings: post-emergence method, application rate 16.0 g/ha; scale 0 to 100
Description: as §1, §2, §3, §4

[7] = tested on: SETFA; experiment: greenhouse herbicidal activity, pre-emergence treatment; assay type: in vivo, Setaria faberi; settings: pre-emergence method, scale 0 to 100
Description: as §1, §2, §3, §4

[8] = tested on: ECHCG; experiment: as above; assay type: in vivo, Echinocloa crus-galli; settings: pre-emergence method, application rate 0,250 kg/ha; scale 0 to 100
Description: as §1, §2, §3, §4

[9] = tested on: ECHCG; experiment: greenhouse herbicidal activity, post-emergence treatment; assay type: in vivo, Echinocloa crus-galli; settings: post-emergence method, scale 0 to 100
Description: as §1, §2, §3, §4

[10] = tested on: APESV; experiment: greenhouse herbicidal activity, pre-emergence treatment; assay type: in vivo, Apera spica-venti; settings: pre-emergence method, application rate 1,000 kg/ha; scale 0 to 100
Description: as §1, §2, §3, §4

[11] = tested on: AMARE; experiment: as above; assay type: in vivo, Amaranthus retroflexus; settings: pre-emergence method, application rate 0,500 kg/ha; scale 0 to 100
Description: as §1, §2, §3, §4

[12] = tested on: ABUTH; experiment: as above; assay type: in vivo, Abutilon theophrasti; settings: pre-emergence method, application rate 0,250 kg/ha; scale 0 to 100
Description: as §1, §2, §3, §4

[13] = tested on: ABUTH; experiment: greenhouse herbicidal activity, post-emergence treatment; assay type: in vivo, Abutilon theophrasti; settings: post-emergence method, scale 0 to 100
Description: as §1, §2, §3, §4

CCC1(C(=O)NC(C)CC(=O)OC)CN(c2cc(Cl)cc(Cl)c2)C1=O (stereo not shown) [compound 125] was tested, and the “herbicidal activity against AMARE” value [1] was “good (A good herbicidal activity is given at values of 80 to 90)”.

With CC1(C(=O)NC2C=CC(C(=O)O)C2)CN(c2cc(F)cc(F)c2)C1=O (stereo not shown) [compound 133] the “herbicidal activity against ALOMY” value ([2]; application rate 62.5 g/ha) was “good (A good herbicidal activity is given at values of 80 to 90)”, the “herbicidal activity against AVEFA” value ([3]; application rate 62.5 g/ha) was “very good (a very good herbicidal activity is given at values of 90 to 100)” and the “herbicidal activity against SETFA” value [4] was “very good (a very good herbicidal activity is given at values of 90 to 100)”.

In the case of COC(=O)C1C=CC(NC(=O)C2(C)CN(c3cccc(Cl)c3)C2=O)C1 (stereo not shown) [compound 136], the “herbicidal activity against SETVI” value [5] is reported as “very good (a very good herbicidal activity is given at values of 90 to 100)”, the “herbicidal activity against AVEFA” value ([3]; application rate 16.0 g/ha) is reported as “very good (a very good herbicidal activity is given at values of 90 to 100)” and the “herbicidal activity against LOLMU” value [6] is reported as “very good (a very good herbicidal activity is given at values of 90 to 100)”.

COC(=O)[C@@H]1C=C[C@H](NC(=O)C2(C)CN(c3cc(C)cc(F)c3)C2=O)C1 (relative stereo) [compound 141] was tested, and the “herbicidal activity against SETFA” value ([7]; application rate 0,250 kg/ha) was “good (A good herbicidal activity is given at values of 80 to 90)”, the “herbicidal activity against ECHCG” value [8] was “good (A good herbicidal activity is given at values of 80 to 90)” and the “herbicidal activity against ECHCG” value ([9]; application rate 0,250 kg/ha) was “good (A good herbicidal activity is given at values of 80 to 90)”.

COC(=O)CC(C)NC(=O)C1(C)CN(c2cc(Cl)cc(Cl)c2)C1=O (stereo not shown) [compound 11] was tested, and the “herbicidal activity against APESV” value [10] was “very good (a very good herbicidal activity is given at values of 90 to 100)”, the “herbicidal activity against SETFA” value ([7]; application rate 1,000 kg/ha) was “very good (a very good herbicidal activity is given at values of 90 to 100)” and the “herbicidal activity against ECHCG” value ([9]; application rate 1,000 kg/ha) was “very good (a very good herbicidal activity is given at values of 90 to 100)”.

With COC(=O)[C@@H]1C=C[C@H](NC(=O)C2(C)CN(c3cccc(OC(F)(F)C(F)F)c3)C2=O)C1 (relative stereo) [compound 146] the “herbicidal activity against AVEFA” value ([3]; application rate 0,250 kg/ha) was “good (A good herbicidal activity is given at values of 80 to 90)”.

CCOC(=O)CC(C)NC(=O)C1(OC)CN(c2cc(Cl)cc(Cl)c2)C1=O (stereo not shown) [compound 13] was tested, and the “herbicidal activity against AMARE” value [11] was “good (A good herbicidal activity is given at values of 80 to 90)”.

In the case of COC(=O)CC(C)NC(=O)C1(C)CN(c2cc(C)cc(F)c2)C1=O (stereo not shown) [compound 142], the “herbicidal activity against ABUTH” value [12] is reported as “good (A good herbicidal activity is given at values of 80 to 90)” and the “herbicidal activity against ALOMY” value ([2]; application rate 0,250 kg/ha) is reported as “good (A good herbicidal activity is given at values of 80 to 90)”.

For COC(=O)CC(C)NC(=O)C1CN(c2cc(Cl)cc(Cl)c2)C1=O (stereo not shown) [compound 131], the “herbicidal activity against ABUTH” value ([13]; application rate 1,000 kg/ha) was “very good (a very good herbicidal activity is given at values of 90 to 100)”.

COC(=O)C1C=CC(NC(=O)C2(C)CN(c3ccc(F)c(C#N)c3)C2=O)C1 (stereo not shown) [compound 147] was tested, and the “herbicidal activity against ABUTH” value ([13]; application rate 0,250 kg/ha) was “very good (a very good herbicidal activity is given at values of 90 to 100)”.
